{"source": "patent US10913781B2", "about": "“Pepducin design and use” (Tufts Medical Center, Inc., priority 2011, dated 2021)", "key": {"PAR2 [1]": {"biological_target": "PAR2 (Mus musculus, UniProt P55086)", "sequence (P55086 26-399)": "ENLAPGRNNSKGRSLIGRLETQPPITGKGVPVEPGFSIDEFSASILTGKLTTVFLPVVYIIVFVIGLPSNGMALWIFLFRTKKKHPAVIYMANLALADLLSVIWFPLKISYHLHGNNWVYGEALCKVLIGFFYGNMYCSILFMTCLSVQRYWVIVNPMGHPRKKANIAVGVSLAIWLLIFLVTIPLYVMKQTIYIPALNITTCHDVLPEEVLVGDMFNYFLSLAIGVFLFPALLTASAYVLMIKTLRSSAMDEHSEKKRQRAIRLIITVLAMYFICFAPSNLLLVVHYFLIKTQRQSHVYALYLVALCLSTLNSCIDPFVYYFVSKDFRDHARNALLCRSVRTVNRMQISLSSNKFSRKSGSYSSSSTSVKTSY", "experiment": "Mouse neutrophil chemotaxis to trypsin", "type": "cell-based", "conditions": "30 nM trypsin", "experimental": "(A) Human neutrophils (n=4 normal volunteers) were analyzed for surface expression of human PAR1, PAR2, and PAR4 by flow cytometry with PAR-specific antibodies. […] Chemotaxis index is the ratio of directed versus random migration over 30 min through a 5-μm pore filter.\nThe ability of some pepducin embodiments of the invention to antagonize PAR2-dependent activity of human neutrophils was tested. Neutrophils were isolated from the peripheral blood of healthy human volunteers and found to express high levels of surface PAR2 and PAR4 and lower apparent levels of PAR1 by flow cytometry (FIG. 3A). […] As human PAR2 shares 85% identity with mouse PAR2 and the mouse i3 loop retains all of the critical pharmacophores identified in the human PAR2 i3 loop, cross-species inhibition with mouse cells was tested."}, "PAR2-homodimers": {"biological_target": "T1, PAR2-homodimers (Homo sapiens, UniProt P55085, Q172R/R173Q/R36A)", "T1 construct": "expressed in transfected cells; host or cells: HEK", "T1 sequence (P55085 26-397 R36A)": "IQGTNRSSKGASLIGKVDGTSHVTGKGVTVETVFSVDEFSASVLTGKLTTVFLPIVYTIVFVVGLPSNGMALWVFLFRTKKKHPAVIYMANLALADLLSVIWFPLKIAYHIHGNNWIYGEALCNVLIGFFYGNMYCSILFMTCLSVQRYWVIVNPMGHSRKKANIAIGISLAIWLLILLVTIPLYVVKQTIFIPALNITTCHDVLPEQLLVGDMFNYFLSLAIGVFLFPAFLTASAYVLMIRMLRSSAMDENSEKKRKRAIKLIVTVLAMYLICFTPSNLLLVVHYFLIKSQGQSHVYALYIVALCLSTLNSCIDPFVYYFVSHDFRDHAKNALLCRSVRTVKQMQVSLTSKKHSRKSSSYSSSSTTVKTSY", "T1 sequence (P55085 37-397 Q172R/R173Q)": "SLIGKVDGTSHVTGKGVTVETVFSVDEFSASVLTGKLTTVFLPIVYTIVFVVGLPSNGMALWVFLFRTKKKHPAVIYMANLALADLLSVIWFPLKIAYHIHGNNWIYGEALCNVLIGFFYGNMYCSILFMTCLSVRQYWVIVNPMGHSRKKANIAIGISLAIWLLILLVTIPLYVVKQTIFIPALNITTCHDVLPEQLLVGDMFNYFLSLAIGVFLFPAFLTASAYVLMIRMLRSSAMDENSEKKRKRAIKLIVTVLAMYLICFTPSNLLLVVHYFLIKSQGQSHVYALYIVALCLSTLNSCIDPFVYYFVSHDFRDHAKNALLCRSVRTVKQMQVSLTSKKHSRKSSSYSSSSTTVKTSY", "experiment": "Migration of HEK cells co-expressing PAR2-R36A and PAR2-RQ toward trypsin", "type": "cell-based", "conditions": "30 nM trypsin; 18 h", "experimental": "(A) PAR2 antagonist pepducins P2pal-18S and P2pal-14GQ inhibit calcium flux induced by PAR2 (SLIGRL) (SEQ ID NO:4) but not PAR1 (TFLLRN) (SEQ ID NO:2) agonists. SW620 cells were stably transfected with PAR1 and pretreated for 1 min with various concentrations of P2pal-18S or P2pal-14GQ and then stimulated with 30 μM PAR agonist. […] Cells were stimulated with 1 μM TFLLRN (SEQ ID NO:2), 1 μM SLIGRL (SEQ ID NO:4) or 100 μM AYPGKF (SEQ ID NO:5) and [^3H]-InsP formation measured over 30 min. (C) SW620 cells were treated with the indicated concentrations of P2pal-18S or P2pal-14GQ in the upper well of an 8-μm pore Boyden chamber and allowed to migrate for 18 h towards 10 μM of the PAR2 specific agonist SLIGRL in the lower chamber. The migration to RPMI/0.1% FBS represents random migration. (D) Migration of HEK cells transiently transfected with PAR2 (wild-type, WT), or PAR2-R36A/PAR2-RQ toward chemotactic gradients of 30 nM trypsin in the absence or presence of the indicated concentration of P2pal-18S for 18 h in a transwell apparatus ([…]). Data (n=2-4) are mean±SEM. *, P<0.05 and **, P<0.005.\nTo provide functional evidence that one PAR2 receptor can interact with an adjacent PAR2 receptor, a signaling dead PAR2-RQ mutant was constructed by transposing residues at Q172 and R173 located in the critical ‘DRY’ TM3 motif (FIG. 1A, the second set of sequence labeled as “QR->RQ”). […]"}, "PAR2 [2]": {"biological_target": "T2, PAR2 (Homo sapiens, UniProt P55085)", "experiment": "Ligand-dependent endocytosis of PAR2", "type": "cell-based", "description": "Additionally, we tested whether P2pal-18S inhibited proteolytic cleavage of PAR2 or endocytosis (DeFea K A, et al. (2000) J Cell Biol 148: 1267-81; Roosterman D, et al. (2003) Am J Physiol Cell Physiol 284: C1319-29; Stalheim L, et al. (2005) Mol Pharmacol 67: 78-87). […] Therefore, the P2pal-18S i3 loop pepducin can inhibit PAR2-dependent calcium signaling, PLC-b inositol phosphate formation, and cell migration, but not proteolytic cleavage or endocytosis."}, "PAR2 [3]": {"biological_target": "T2, PAR2", "experiment": "Human neutrophil chemotaxis toward mast cell conditioned media (PAR2 pepducin)", "type": "cell-based", "design": "SW620 colon adenocarcinoma cells that endogenously express PAR2; endogenous in cells; host or cells: SW620 (in A7 the SW620 cells were additionally stably transfected with PAR1)", "conditions": "1 mM P2pal-18S; 30 min", "experimental": "(A) Mast cells were treated with 2 mg/mL of mast cell degranulating agent 48/80 or 2% 1-carrageenan/4% kaolin. […] (B) P2pal-18S inhibits human neutrophil chemotaxis (n=6) to mast cell media. Human neutrophils were incubated with […] P2pal-18S, or […] mast cell tryptase inhibitor APC-366 and allowed to migrate 30 min toward CM from mast cells. (C) C57BL/6 mice (n=5) were pretreated with the tryptase inhibitor APC-366 (5 mg/kg, s.c.) or vehicle (20% DMSO) and then challenged with intraplantar injection of 1-carrageenan/kaolin. (D) Mast cell conditioned media (30 μL of 1-carrageenan/kaolin stimulated media) was injected into the hindpaws of C57BL/6 mice treated with 10 mg/kg P2pal-18S or vehicle (n=5). Data represent mean±SEM. #, P=0.07, *, P<0.05 and **, P<0.005. (E) Mast cell-deficient mice have a significant reduction in 1-carrageenan/kaolin induced paw edema (8 h time point, n=4-6) as compared to littermate controls. Mast-cell deficient mice or littermate controls with intact mast cells were treated with P2pal-18S (10 mg/kg, s.c.) or vehicle and hind paws challenged with 1-carrageenan/kaolin irritant. Error bars represent mean±SEM. […]"}, "PAR2 [4]": {"biological_target": "T2, PAR2", "experiment": "Agonist | (%)^‡", "design": "SW620 colon adenocarcinoma cells that endogenously express PAR2; endogenous in cells; host or cells: SW620 (in A7 the SW620 cells were additionally stably transfected with PAR1)"}}, "data": [{"smiles": "CCCCCCCCCCCCCCCC(=O)N[C@@H](CCCNC(=N)N)C(=O)N[C@@H](CO)C(=O)N[C@@H](CO)C(=O)N[C@@H](C)C(=O)N[C@@H](CCSC)C(=O)N[C@@H](CC(=O)O)C(=O)N[C@@H](CCC(=O)O)C(=O)N[C@@H](CC(N)=O)C(=O)N[C@@H](CO)C(=O)N[C@@H](CCC(=O)O)C(=O)N[C@@H](CCCCN)C(=O)N[C@@H](CCCCN)C(=O)N[C@@H](CCCNC(=N)N)C(=O)N[C@@H](CCCCN)C(=O)N[C@@H](CO)C(=O)N[C@@H](C)C(=O)N[C@H](C(=O)N[C@@H](CCCCN)C(N)=O)[C@@H](C)CC", "note": "[P2pal-18S]", "values": [{"measurement": "Inhibition of mouse neutrophil migration", "setting": "PAR2 [1]", "result": "completely inhibited"}, {"measurement": "Suppression of chemotactic migration (transactivation of PAR2-homodimers)", "setting": "PAR2-homodimers", "result": "complete suppression"}, {"measurement": "Inhibition of ligand-dependent endocytosis of PAR2", "setting": "PAR2 [2]", "result": "did not inhibit"}, {"measurement": "Inhibition of chemotactic migration toward tryptase-containing mast cell media", "setting": "PAR2 [3]", "result": "completely inhibited"}, {"measurement": "Agonist | (%)^‡", "setting": "PAR2 [4]", "result": 3, "unit": "%"}]}]}
